Source: patent publication US20100056519A1, “COMPOSITION AND METHOD FOR REDUCING PLATELET ACTIVATION AND FOR THE TREATMENT OF THROMBOTIC EVENTS” (priority 2008, published 2010)

What was measured:
Format in all cases: cell-based, human
[1] = system: platelets; assay: Conventional platelet aggregation in PRP induced by 1 μg/ml collagen; details: for Platelet Aggregation (%), Collagen 1 μg/mL: Mean ± SD
Experimental: (§1) The methodology employed was conventional aggregation induced by 5 μM ADP, 1 μg/ml collagen, 10 μM TRAP, whole blood aggregation with 1 μg/ml collagen, Ultegra, and PFA-100 Analyzers, expression of 14 intact, and TRAP-stimulated major receptors by whole blood flow cytometry were utilized to assess platelet activity after preincubation with escalating concentrations of E5555 (20 ng/ml, 50 ng/ml, and 100 ng/ml). The experiments were performed in healthy volunteers, CAD patients treated with ASA, and CAD patients treated with ASA and clopidogrel combination (n=10, for each group).
(§2) An Informed Consent was obtained from all volunteers. Drug users were excluded from data analysis. The study was approved by Quorum Institutional Review Board. All subjects underwent blood sampling after at least 30 minutes of rest and two or more hours of fasting. Blood (28 ml) was drawn between 8 and 10 a.m. in order to avoid any diurnal influence and sampled from an antecubital vein using a 21-gauge butterfly needle containing 3.2% sodium citrate (1:9 volume) after having discarded the first 1.5 ml of free running blood. Four Vacutainer tubes (7.0 ml) were collected for a total of 28 ml of whole blood-citrate mixture from each study participant. Chronologically, blood samples were delivered to the core laboratory facility within 45 minutes after drawing. Then all tubes of blood-citrate mixture were pooled. One portion of pooled blood (5 ml) was kept as an internal control and pretreated with the vehicle. The remaining blood (23 ml) was used for the in vitro exposure to E5555 at concentrations of 20 ng/ml, 50 ng/ml, and 100 ng/ml. […] The platelet aggregation studies, Rapid Analyzers measures, and flow cytometry preparations were initiated within no more than 110 minutes following the blood draw, incubation with the drug, and preparation of the samples.
Platelet counts were determined in each PRP sample with a Coulter Counter ZM (Coulter Co., Hialeah, Fla.). Platelet numbers were adjusted to 3.50×10^8/ml for aggregation using homologous platelet-poor plasma. Platelet aggregation was stimulated with 5 μM ADP, 1 μg/ml collagen, or 10 μM TRAP. All agonists were obtained from Chronolog Corporation (Havertown, Pa.) and Sigma (St. Louis, Miss.). Platelet aggregation experiments were performed using a Chrono-Log Lumi-Aggregometer (model 560-Ca). Aggregation curves were recorded for 4 minutes and analyzed according to internationally established standards using Aggrolink® software. Platelet aggregability was expressed as the percentage of light transmittance change from baseline using platelet-poor plasma as a reference.

[2] = system: platelets; assay: Ultegra Rapid Platelet-Function Assay (RPFA-TRAP); details: for Platelet Activation Units (PAU): Mean ± SD
Experimental: as §1, §2
Whole blood aggregation was determined using a Chronolog device 592A. The whole blood-citrate mixture was diluted 1:1 with 0.5 ml phosphate buffered saline and gently swirled. The sample then was allowed to warm to 37° C. for 5 minutes then transferred to the assay well. The electrode was then placed in the cuvette and the sample was stimulated with 1 μg/ml collagen. The change in electrical impedance was digitally recorded. Each whole blood sample was analyzed utilizing 2 different clinical devices: • (1) a Rapid Platelet-Function Assay (Ultegra®) (Accumetrics, Inc., San Diego, Calif.), which is a rapid platelet-function assay aspirin cartridge test with TRAP used as agonist. Polystyrene beads coated with fibrinogen are placed in a cartridge along with the peptide that activates thrombin receptor. Anticoagulated whole blood was added to the cartridge, and agglutination between platelets and coated beads was recorded. The data mirrors turbidimetric platelet aggregation and presumably reflects platelet glycoprotein IIb/IIIa blockade. Ultegra RPFA-TRAP Assay results were reported as Platelet Activation Units (PAU); and • (2) Platelet-Function Analyzer PFA-100 ™ (Dade Behring, Deerfield Ill.), which is a high shear-inducing analyzer that simulates primary hemostasis after injury to a small vessel under flow conditions. The device provides a constant negative pressure that aspirates whole blood, which comes into contact with the collagen, coated membrane and then passes through the aperture. The time required to obtain occlusion of the aperture is digitally recorded. The time to aperture occlusion (the closure time) is recorded in seconds and is inversely related to the degree of shear-induced platelet activation. We used ADP/Collagen cartridges in the index study. Both PFA-100 and Ultegra assays were performed in duplicate. An electronic quality control test was performed on each instrument daily prior to performing any patient samples.

[3] = system: Thrombospondin-Receptor (CD36); assay: TRAP-stimulated whole blood flow cytometry, thrombospondin receptor; details: Mean ± SD
Experimental: as §1, §2
(§3) Formation of platelet-leukocyte aggregates was assessed by dual labeling with pan-platelet marker (CD151), and then with CD14, the macrophage receptor for endotoxin lipopolysaccharides (PharMingen, and Coulter, San Diego, Calif., USA). The tubes were then covered with aluminum foil and incubated at 37° C. for 40 minutes with gentle rotation. After incubation, samples were immediately analyzed on a Becton Dickinson FACScan flow cytometer. The instrument was set up to measure forward light scatter, and FITC fluorescence. All parameters were collected using four-decade logarithmic amplification. The data was retrieved in list mode files and then analyzed. P selectin was expressed as percent positive cells. Other antigens were expressed as log mean fluorescence intensity.
(§4) For flow cytometry (TRAP-stimulated) all of the above flow cytometry experiments were identically repeated utilizing prestimulation with 10 μmol/L TRAP for 5 minutes at 37° C. To determine statistics, a Paired Sign Test was used to define significance of differences between vehicle and E5555-treated groups. The Mann-Whitney U test was used to analyze nonparametric data. Normally distributed data were expressed as mean±standard error (m±SE), and skewed data as median (range). All P-values were two sided. All analysis was performed using the SPSS v9.0 program (SPSS Inc., Chicago, Ill.).

[4] = system: LAMP-1 (CD107a); assay: TRAP-stimulated whole blood flow cytometry, LAMP-1; details: Mean ± SD
Experimental: as §1, §2, §3, §4

[5] = E5555 20 ng/ml, Patients (ASA + C)
[6] = E5555 50 ng/ml, Patients (ASA + C)
[7] = E5555 100 ng/ml, Patients (ASA + C)
[8] = E5555 100 ng/ml, Patients (ASA)

## Br.CCOc1cc2c(c(F)c1OCC)C(=N)N(CC(=O)c1cc(N3CCOCC3)c(OC)c(C(C)(C)C)c1)C2 [E5555, 1-(3-tert-butyl-4-methoxy-5-morpholinophenyl)-2-(5,6-diethoxy-7-fluoro-1-imino-1,3-dihydro-2H-isoindol-2-yl)ethanone hydrobromide]
[1]; ASA-treated patients with coronary artery disease
  inhibition of platelet activity, aggregation induced by collagen: 10-12%
[1]; CAD patients treated with ASA+clopidogrel
  collagen-induced aggregation, effect in words: moderate inhibition
[1]; E5555 20 ng/ml, CAD patients treated with ASA + clopidogrel
  Platelet Aggregation (%), Collagen 1 μg/mL: 20.6 ± 3.2 %
[1]; E5555 20 ng/ml, CAD patients treated with ASA
  Platelet Aggregation (%), Collagen 1 μg/mL: 23.9 ± 4.8 %
[1]; E5555 20 ng/ml, healthy volunteers
  Platelet Aggregation (%), Collagen 1 μg/mL: 67.6 ± 6.2 %
[1]; E5555 50 ng/ml, CAD patients treated with ASA + clopidogrel
  Platelet Aggregation (%), Collagen 1 μg/mL: 24.0 ± 3.3 %
[1]; E5555 50 ng/ml, CAD patients treated with ASA
  Platelet Aggregation (%), Collagen 1 μg/mL: 26.1 ± 4.0 %
[1]; E5555 50 ng/ml, healthy volunteers
  Platelet Aggregation (%), Collagen 1 μg/mL: 69.1 ± 6.5 %
[1]; E5555 100 ng/ml, CAD patients treated with ASA + clopidogrel
  Platelet Aggregation (%), Collagen 1 μg/mL: 21.7 ± 4.2 %
[1]; E5555 100 ng/ml, CAD patients treated with ASA
  Platelet Aggregation (%), Collagen 1 μg/mL: 25.7 ± 5.2 %
[1]; E5555 100 ng/ml, healthy volunteers
  Platelet Aggregation (%), Collagen 1 μg/mL: 72.8 ± 7.5 %
[1]; healthy volunteers, E5555 20, 50, and 100 ng/ml
  inhibition of conventional platelet aggregation induced by collagen: 15-20%
[1]; overall summary of the study
  inhibition of collagen-induced platelet aggregation in plasma: 10-15%
[2]; [5]
  Platelet Activation Units (PAU): 115 ± 21 PAU
[2]; E5555 20 ng/ml, Patients (ASA)
  Platelet Activation Units (PAU): 118 ± 12 PAU
[2]; E5555 20 ng/ml, Volunteers
  Platelet Activation Units (PAU): 270 ± 30 PAU
[2]; [6]
  Platelet Activation Units (PAU): 108 ± 20 PAU
[2]; E5555 50 ng/ml, Patients (ASA)
  Platelet Activation Units (PAU): 114 ± 11 PAU
[2]; E5555 50 ng/ml, Volunteers
  Platelet Activation Units (PAU): 126 ± 20 PAU
[2]; [7]
  Platelet Activation Units (PAU): 112 ± 18 PAU
[2]; [8]
  Platelet Activation Units (PAU): 113 ± 14 PAU
[2]; E5555 100 ng/ml, Volunteers
  Platelet Activation Units (PAU): 117 ± 21 PAU
[2]; overall summary
  Platelet Analyzer readings, fibrinogen binding, effect in words: diminished fibrinogen binding
[2]; volunteers and CAD patients on ASA alone or with clopidogrel
  Ultegra Analyzer PAU, effect in words: reduction of PAU
[3]; [5]
  Thrombospondin-Receptor (CD36), Mean Fluorescence Intensity: 6 ± 1 MFI
[3]; E5555 20 ng/ml, Patients (ASA)
  Thrombospondin-Receptor (CD36), Mean Fluorescence Intensity: 6 ± 2 MFI
[3]; E5555 20 ng/ml, Volunteers
  Thrombospondin-Receptor (CD36), Mean Fluorescence Intensity: 9 ± 1 MFI
[3]; [6]
  Thrombospondin-Receptor (CD36), Mean Fluorescence Intensity: 5 ± 1 MFI
[3]; E5555 50 ng/ml, Patients (ASA)
  Thrombospondin-Receptor (CD36), Mean Fluorescence Intensity: 7 ± 1 MFI
[3]; E5555 50 ng/ml, Volunteers
  Thrombospondin-Receptor (CD36), Mean Fluorescence Intensity: 9 ± 2 MFI
[3]; [7]
  Thrombospondin-Receptor (CD36), Mean Fluorescence Intensity: 6 ± 2 MFI
[3]; [8]
  Thrombospondin-Receptor (CD36), Mean Fluorescence Intensity: 7 ± 2 MFI
[3]; E5555 100 ng/ml, Volunteers
  Thrombospondin-Receptor (CD36), Mean Fluorescence Intensity: 9 ± 1 MFI
[4]; [5]
  LAMP-1 (CD107a), Mean Fluorescence Intensity: 4.0 ± 0.8 MFI
[4]; E5555 20 ng/ml, Patients (ASA)
  LAMP-1 (CD107a), Mean Fluorescence Intensity: 4.1 ± 0.7 MFI
[4]; E5555 20 ng/ml, Volunteers
  LAMP-1 (CD107a), Mean Fluorescence Intensity: 5.9 ± 0.8 MFI
[4]; [6]
  LAMP-1 (CD107a), Mean Fluorescence Intensity: 3.2 ± 1.0 MFI
[4]; E5555 50 ng/ml, Patients (ASA)
  LAMP-1 (CD107a), Mean Fluorescence Intensity: 4.0 ± 0.5 MFI
[4]; E5555 50 ng/ml, Volunteers
  LAMP-1 (CD107a), Mean Fluorescence Intensity: 4.9 ± 0.4 MFI
[4]; [7]
  LAMP-1 (CD107a), Mean Fluorescence Intensity: 3.0 ± 1.1 MFI
[4]; [8]
  LAMP-1 (CD107a), Mean Fluorescence Intensity: 3.1 ± 0.7 MFI
[4]; E5555 100 ng/ml, Volunteers
  LAMP-1 (CD107a), Mean Fluorescence Intensity: 4.7 ± 0.8 MFI
